Measurements: PubChem BioAssay (NCI)
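Following 48 hours of exposure in 96-well plates, responses at five concentrations were used to interpolate endpoints linearly. GI50: concentration for 50% inhibition of growth. Definition used: TGI = concentration required for complete inhibition of growth.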

Tests used:
Assay in all cases: inhibition of tumour cell growth, NCI panel, 48 h
RPMI-8226 leukemia = system: RPMI-8226 leukemia
NCI-H522 lung = system: NCI-H522 lung
PC-3 prostate = system: PC-3 prostate
HS 578T breast = system: HS 578T breast
SK-OV-3 ovarian = system: SK-OV-3 ovarian
SK-MEL-5 melanoma = system: SK-MEL-5 melanoma
NCI-H23 lung = system: NCI-H23 lung
NCI-H226 lung = system: NCI-H226 lung
786-0 renal = system: 786-0 renal
ACHN renal = system: ACHN renal
SNB-75 CNS = system: SNB-75 CNS
SR leukemia = system: SR leukemia
OVCAR-3 ovarian = system: OVCAR-3 ovarian
LOX IMVI melanoma = system: LOX IMVI melanoma
CCRF-CEM leukemia = system: CCRF-CEM leukemia
CAKI-1 renal = system: CAKI-1 renal
EKVX NSCLC = system: EKVX NSCLC
TK-10 renal = system: TK-10 renal
MDA-MB-468 breast = system: MDA-MB-468 breast
HOP-92 NSCLC = system: HOP-92 NSCLC
MDA-MB-435 = system: MDA-MB-435
HL-60(TB) leukemia = system: HL-60(TB) leukemia
SF-539 CNS = system: SF-539 CNS
OVCAR-8 ovarian = system: OVCAR-8 ovarian
HCT-116 colon = system: HCT-116 colon
COLO 205 colon = system: COLO 205 colon
HCC-2998 colon = system: HCC-2998 colon
A549 NSCLC = system: A549 NSCLC
HCT-15 colon = system: HCT-15 colon
SNB-19 CNS = system: SNB-19 CNS
BT-549 breast = system: BT-549 breast
MCF7 breast = system: MCF7 breast
SK-MEL-28 melanoma = system: SK-MEL-28 melanoma
NCI-H460 lung = system: NCI-H460 lung
SN12C renal = system: SN12C renal
HT29 colon = system: HT29 colon
MDA-MB-231 breast = system: MDA-MB-231 breast
SW-620 colon = system: SW-620 colon
MOLT-4 leukemia = system: MOLT-4 leukemia
KM12 colon = system: KM12 colon
UO-31 renal = system: UO-31 renal
OVCAR-5 ovarian = system: OVCAR-5 ovarian
SF-295 CNS = system: SF-295 CNS
U251 CNS = system: U251 CNS
T-47D breast = system: T-47D breast
A498 renal = system: A498 renal
IGROV1 ovarian = system: IGROV1 ovarian
M14 melanoma = system: M14 melanoma
SK-MEL-2 melanoma = system: SK-MEL-2 melanoma
RXF 393 renal = system: RXF 393 renal
K-562 leukemia = system: K-562 leukemia
OVCAR-4 ovarian = system: OVCAR-4 ovarian
MALME-3M melanoma = system: MALME-3M melanoma
SF-268 CNS = system: SF-268 CNS
DU-145 prostate = system: DU-145 prostate
HOP-62 NSCLC = system: HOP-62 NSCLC
UACC-62 melanoma = system: UACC-62 melanoma
UACC-257 melanoma = system: UACC-257 melanoma

`COc1ccccc1[C@H]1C(C(=O)c2ccc(Cl)cc2)C2(N[C@@H]1c1ccccc1)C(=O)Nc1ccccc12` (stereo partly specified) was tested. Which GI50 (RPMI-8226 leukemia) did it give?
Its GI50 is 2.06 µM.

What about the TGI (RPMI-8226 leukemia) of the same compound?
Its TGI is 21.9 µM.

What about the GI50 (NCI-H522 lung) of the same compound?
The GI50 was 1.24 µM.

And the TGI (NCI-H522 lung)?
Its TGI is 4.17 µM.

What about the GI50 (PC-3 prostate) of the same compound?
The GI50 was 1.85 µM.

And the TGI (PC-3 prostate)?
Its TGI is 13.6 µM.

And the GI50 (HS 578T breast)?
The GI50 was 1.67 µM.

What about the TGI (HS 578T breast) of the same compound?
The TGI was 10.4 µM.

What about the GI50 (SK-OV-3 ovarian) of the same compound?
The GI50 was 4.24 µM.

And the TGI (SK-OV-3 ovarian)?
Its TGI is 55.3 µM.

And the GI50 (SK-MEL-5 melanoma)?
Its GI50 is 1.87 µM.

And the TGI (SK-MEL-5 melanoma)?
The TGI was 6.52 µM.

And the GI50 (NCI-H23 lung)?
Its GI50 is 1.83 µM.

What about the TGI (NCI-H23 lung) of the same compound?
Its TGI is 8.71 µM.

What about the GI50 (NCI-H226 lung) of the same compound?
The GI50 was 1.61 µM.

And the TGI (NCI-H226 lung)?
The TGI was 9.08 µM.

What about the GI50 (786-0 renal) of the same compound?
The GI50 was 2.13 µM.

What about the TGI (786-0 renal) of the same compound?
Its TGI is 10.1 µM.

And the GI50 (ACHN renal)?
Its GI50 is 1.99 µM.

And the TGI (ACHN renal)?
Its TGI is 22.5 µM.

What about the GI50 (SNB-75 CNS) of the same compound?
Its GI50 is 1.13 µM.

What about the TGI (SNB-75 CNS) of the same compound?
The TGI was 13.2 µM.

And the GI50 (SR leukemia)?
Its GI50 is 1.42 µM.

And the TGI (SR leukemia)?
Its TGI is 4.26 µM.

What about the GI50 (OVCAR-3 ovarian) of the same compound?
The GI50 was 2.19 µM.

And the TGI (OVCAR-3 ovarian)?
Its TGI is 12.1 µM.

What about the GI50 (LOX IMVI melanoma) of the same compound?
Its GI50 is 1.55 µM.

And the TGI (LOX IMVI melanoma)?
Its TGI is 6.15 µM.

What about the GI50 (CCRF-CEM leukemia) of the same compound?
Its GI50 is 1.91 µM.

What about the TGI (CCRF-CEM leukemia) of the same compound?
Its TGI is 8.25 µM.

And the GI50 (CAKI-1 renal)?
Its GI50 is 1.23 µM.

What about the TGI (CAKI-1 renal) of the same compound?
Its TGI is 51.5 µM.

What about the GI50 (EKVX NSCLC) of the same compound?
Its GI50 is 2.13 µM.

What about the TGI (EKVX NSCLC) of the same compound?
The TGI was 61.5 µM.

And the GI50 (TK-10 renal)?
The GI50 was 3.68 µM.

What about the TGI (TK-10 renal) of the same compound?
Its TGI is 33.2 µM.

What about the GI50 (MDA-MB-468 breast) of the same compound?
Its GI50 is 1.24 µM.

What about the TGI (MDA-MB-468 breast) of the same compound?
Its TGI is 3.85 µM.

And the GI50 (HOP-92 NSCLC)?
The GI50 was 1.79 µM.

And the TGI (HOP-92 NSCLC)?
The TGI was 5.88 µM.

And the GI50 (MDA-MB-435)?
Its GI50 is 1.48 µM.

And the TGI (MDA-MB-435)?
Its TGI is 3.73 µM.

And the GI50 (HL-60(TB) leukemia)?
The GI50 was 1.42 µM.

And the TGI (HL-60(TB) leukemia)?
The TGI was 5.48 µM.

What about the GI50 (SF-539 CNS) of the same compound?
The GI50 was 2.83 µM.

And the TGI (SF-539 CNS)?
The TGI was 10.5 µM.

And the GI50 (OVCAR-8 ovarian)?
Its GI50 is 1.94 µM.

And the TGI (OVCAR-8 ovarian)?
The TGI was 8.55 µM.

What about the GI50 (HCT-116 colon) of the same compound?
The GI50 was 1.5 µM.

And the TGI (HCT-116 colon)?
The TGI was 4.66 µM.

And the GI50 (COLO 205 colon)?
Its GI50 is 2.25 µM.

What about the TGI (COLO 205 colon) of the same compound?
Its TGI is 9.75 µM.

And the GI50 (HCC-2998 colon)?
Its GI50 is 2.1 µM.

What about the TGI (HCC-2998 colon) of the same compound?
Its TGI is 7.72 µM.

And the GI50 (A549 NSCLC)?
Its GI50 is 1.99 µM.

What about the TGI (A549 NSCLC) of the same compound?
The TGI was 12 µM.

And the GI50 (HCT-15 colon)?
Its GI50 is 1.9 µM.

And the TGI (HCT-15 colon)?
Its TGI is 11.5 µM.

And the GI50 (SNB-19 CNS)?
Its GI50 is 3.34 µM.

What about the TGI (SNB-19 CNS) of the same compound?
The TGI was 61.5 µM.

And the GI50 (BT-549 breast)?
The GI50 was 1.97 µM.

And the TGI (BT-549 breast)?
Its TGI is 6.57 µM.

And the GI50 (MCF7 breast)?
The GI50 was 1.67 µM.

What about the TGI (MCF7 breast) of the same compound?
The TGI was 8.88 µM.

And the GI50 (SK-MEL-28 melanoma)?
The GI50 was 4.16 µM.

And the TGI (SK-MEL-28 melanoma)?
Its TGI is 13.2 µM.

And the GI50 (NCI-H460 lung)?
The GI50 was 1.21 µM.

And the TGI (NCI-H460 lung)?
Its TGI is 2.89 µM.

And the GI50 (SN12C renal)?
The GI50 was 1.24 µM.

And the TGI (SN12C renal)?
Its TGI is 2.9 µM.

What about the GI50 (HT29 colon) of the same compound?
Its GI50 is 1.49 µM.

What about the TGI (HT29 colon) of the same compound?
The TGI was 4.1 µM.

And the GI50 (MDA-MB-231 breast)?
Its GI50 is 1.6 µM.

What about the TGI (MDA-MB-231 breast) of the same compound?
The TGI was 5.79 µM.

And the GI50 (SW-620 colon)?
Its GI50 is 1.86 µM.

What about the TGI (SW-620 colon) of the same compound?
Its TGI is 24.4 µM.

What about the GI50 (MOLT-4 leukemia) of the same compound?
Its GI50 is 1.75 µM.

What about the TGI (MOLT-4 leukemia) of the same compound?
The TGI was 16.1 µM.

And the GI50 (KM12 colon)?
Its GI50 is 2.45 µM.

And the TGI (KM12 colon)?
Its TGI is 14.6 µM.

And the GI50 (UO-31 renal)?
The GI50 was 1.11 µM.

What about the TGI (UO-31 renal) of the same compound?
The TGI was 12.5 µM.

And the GI50 (OVCAR-5 ovarian)?
Its GI50 is 3.24 µM.

And the TGI (OVCAR-5 ovarian)?
Its TGI is 19.5 µM.

What about the GI50 (SF-295 CNS) of the same compound?
Its GI50 is 2.39 µM.

And the TGI (SF-295 CNS)?
Its TGI is 12.6 µM.

What about the GI50 (U251 CNS) of the same compound?
The GI50 was 1.81 µM.

What about the TGI (U251 CNS) of the same compound?
Its TGI is 7.38 µM.

And the GI50 (T-47D breast)?
The GI50 was 1.97 µM.

And the TGI (T-47D breast)?
Its TGI is 44.1 µM.

And the GI50 (A498 renal)?
Its GI50 is 4.75 µM.

And the TGI (A498 renal)?
The TGI was 18 µM.

And the GI50 (IGROV1 ovarian)?
Its GI50 is 1.95 µM.

And the TGI (IGROV1 ovarian)?
The TGI was 11.6 µM.

And the GI50 (M14 melanoma)?
The GI50 was 1.81 µM.

What about the TGI (M14 melanoma) of the same compound?
The TGI was 7.63 µM.

What about the GI50 (SK-MEL-2 melanoma) of the same compound?
Its GI50 is 1.73 µM.

What about the TGI (SK-MEL-2 melanoma) of the same compound?
Its TGI is 6.06 µM.

What about the GI50 (RXF 393 renal) of the same compound?
The GI50 was 1.32 µM.

And the TGI (RXF 393 renal)?
The TGI was 3.51 µM.

What about the GI50 (K-562 leukemia) of the same compound?
Its GI50 is 1.78 µM.

What about the TGI (K-562 leukemia) of the same compound?
Its TGI is 44.4 µM.

And the GI50 (OVCAR-4 ovarian)?
The GI50 was 2.36 µM.

And the TGI (OVCAR-4 ovarian)?
Its TGI is 31.8 µM.

And the GI50 (MALME-3M melanoma)?
Its GI50 is 3.36 µM.

What about the TGI (MALME-3M melanoma) of the same compound?
Its TGI is 12.1 µM.

What about the GI50 (SF-268 CNS) of the same compound?
Its GI50 is 2.19 µM.

And the TGI (SF-268 CNS)?
The TGI was 29.8 µM.

And the GI50 (DU-145 prostate)?
The GI50 was 2.45 µM.

What about the TGI (DU-145 prostate) of the same compound?
The TGI was 24.9 µM.

And the GI50 (HOP-62 NSCLC)?
The GI50 was 3.86 µM.

What about the TGI (HOP-62 NSCLC) of the same compound?
Its TGI is 14 µM.

What about the GI50 (UACC-62 melanoma) of the same compound?
The GI50 was 1.86 µM.

What about the TGI (UACC-62 melanoma) of the same compound?
Its TGI is 8.04 µM.

What about the GI50 (UACC-257 melanoma) of the same compound?
The GI50 was 2.63 µM.

What about the TGI (UACC-257 melanoma) of the same compound?
Its TGI is 14 µM.
